From the NIST ThermoML archive (doi:10.1016/j.fluid.2012.06.028)
Numbers after ± are expanded uncertainties.

Test: xn = mol fraction of the nth substance listed
Details: Liquid, Vibrating tube method

CCCCCCCCCCCCCC [tetradecane] + CCCCCCCCCC
mass density (295 K, 1000 kPa, x2 = 0.5): 746.3 ± 0.4 kg/m3 | mass density (295 K, 1000 kPa, x2 = 0.75): 739.2 ± 0.4 kg/m3 | mass density (295 K, 2000 kPa, x2 = 0.75): 739.9 ± 0.4 kg/m3 | mass density (295 K, 3000 kPa, x2 = 0.5): 747.6 ± 0.4 kg/m3 | mass density (295 K, 3000 kPa, x2 = 0.75): 740.7 ± 0.4 kg/m3 | mass density (295 K, 4000 kPa, x2 = 0.5): 748.3 ± 0.4 kg/m3 | mass density (295 K, 4000 kPa, x2 = 0.75): 741.4 ± 0.4 kg/m3 | mass density (295 K, 5000 kPa, x2 = 0.5): 749 ± 0.4 kg/m3 | mass density (295 K, 5000 kPa, x2 = 0.75): 742.1 ± 0.4 kg/m3 | mass density (295 K, 6000 kPa, x2 = 0.5): 749.7 ± 0.4 kg/m3 | mass density (295 K, 6000 kPa, x2 = 0.75): 742.8 ± 0.4 kg/m3 | mass density (295 K, 7000 kPa, x2 = 0.75): 743.5 ± 0.4 kg/m3 | mass density (295 K, 8000 kPa, x2 = 0.5): 751.1 ± 0.4 kg/m3 | mass density (295 K, 8000 kPa, x2 = 0.75): 744.2 ± 0.4 kg/m3 | mass density (295 K, 9000 kPa, x2 = 0.5): 751.7 ± 0.4 kg/m3 | mass density (295 K, 9000 kPa, x2 = 0.75): 745 ± 0.4 kg/m3 | mass density (295 K, 10000 kPa, x2 = 0.75): 745.7 ± 0.4 kg/m3 | mass density (295.5 K, 1000 kPa, x2 = 0.25): 753.2 ± 0.4 kg/m3 | mass density (295.5 K, 2000 kPa, x2 = 0.25): 753.9 ± 0.4 kg/m3 | mass density (295.5 K, 3000 kPa, x2 = 0.25): 754.6 ± 0.4 kg/m3 | mass density (295.5 K, 4000 kPa, x2 = 0.25): 755.3 ± 0.4 kg/m3 | mass density (295.5 K, 5000 kPa, x2 = 0.25): 756 ± 0.4 kg/m3 | mass density (295.5 K, 6000 kPa, x2 = 0.25): 756.7 ± 0.4 kg/m3 | mass density (295.5 K, 7000 kPa, x2 = 0.25): 757.4 ± 0.4 kg/m3 | mass density (295.5 K, 8000 kPa, x2 = 0.25): 758 ± 0.4 kg/m3 | mass density (295.5 K, 9000 kPa, x2 = 0.25): 758.7 ± 0.4 kg/m3 | mass density (295.5 K, 10000 kPa, x2 = 0.25): 759.4 ± 0.4 kg/m3
